Key:
Test in all cases: GAL4 chimeric NHR cross-reactivity assay
Type in all cases: cell-based
Settings in all cases: 10 μM
hRXRα = target: T1, hRXRα (Homo sapiens, UniProt P19793)
T1 construct: expressed in transfected cells; host or cells: CV-1 (monkey)
T1 sequence (P19793 227-458 limits assumed): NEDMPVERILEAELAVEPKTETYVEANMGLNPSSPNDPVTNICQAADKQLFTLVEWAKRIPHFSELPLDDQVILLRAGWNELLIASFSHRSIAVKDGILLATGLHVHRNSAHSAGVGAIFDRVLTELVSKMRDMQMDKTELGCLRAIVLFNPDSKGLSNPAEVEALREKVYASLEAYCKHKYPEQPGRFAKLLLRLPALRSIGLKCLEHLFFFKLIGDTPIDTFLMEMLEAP
Protocol: (§1) FIGS. 3A-3E collectively show the results of ligand activation of CV-1 cells co-transfected with a luciferase reporter gene with a variety of receptor expression constructs. […] FIGS. 3C-3E show the results of CV-1 cells transiently transfected with the indicated reporter constructs, treated with either DMSO or 10 μM of the compounds fexaramine (3C), fexarine (3D), fexarene (3E). Reporter activity was normalized to the internal control and the data plotted as fold activation relative to untreated cells. All transfections contained CMX-βgal as an internal control.
(§2) The expression plasmids pCMX, pCMX-LacZ, pCMX-mFXRFL, pCMX-hRXRFL, pCMX-GALDBD-rFXRLBD and other pCUX-GALDBD-NR LBDs (hRXRα, hPPARαγδ, mPXR, hPXR, hLXRα, HTRβ, hRARβ, mCAR, mERR3 and hVDR) have been described elsewhere (Blumberg et al. (1998). SXR, a novel steroid and xenobiotic-sensing nuclear receptor. Genes Dev. 12(20), 3195-205). The reporter plasmids pMH2004-TK-luc, pTKECRE*6-luc, pTKER-8*2-luc and pMRP-2-luc also have been described elsewhere. The hPLTP-luc promoter was kindly provided by Dr Dennis Dowhan and the hIBABP-luc promoter was created from a plasmid provided by Dr Philippe Besnard.
(§3) Cell-based transcriptional activation assays using chimeric nuclear hormone receptor (NHR) constructs were established to measure the selectivity of the compounds to FXR relative to other NHRs (Forman et al. (1995). Identification of a nuclear receptor that is activated by farnesol metabolites. Cell 81, 687-693). These assays used fusion proteins with the yeast GAL4 DNA binding domain connected to the ligand-binding domain (LBD) of NHRs. These constructs were co-transfected with a thymidine kinase C minimal promoter reporter vector containing four copies of the GAL4 binding site. Titration experiments were then performed using the identified compounds. […] Addition of RXR had no effect on the activation potential of fexaramine, fexarine, fexarene in this assay.
(§4) No activity was observed on other chimeric NHR constructs including hRXRα, hPPARαγδ, mPXR, hPXR, hLXRα, hTRβ, hRARβ, mCAR, mERR3 and hVDR (see FIGS. 3C-3E).

hLXRα = target: T2, hLXRα (Homo sapiens, UniProt Q13133)
T2 construct: expressed in transfected cells; host or cells: CV-1 (monkey)
T2 sequence (Q13133 209-447 limits assumed): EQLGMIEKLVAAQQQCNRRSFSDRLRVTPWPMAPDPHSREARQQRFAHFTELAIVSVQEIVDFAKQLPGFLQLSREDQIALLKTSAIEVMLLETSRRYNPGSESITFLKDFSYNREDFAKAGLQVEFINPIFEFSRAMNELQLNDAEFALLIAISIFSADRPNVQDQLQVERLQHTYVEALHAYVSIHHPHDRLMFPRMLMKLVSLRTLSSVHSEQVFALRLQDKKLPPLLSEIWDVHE
Protocol: as §1, §2, §3, §4

mPXR = target: T3, mPXR (Mus musculus, UniProt O54915)
T3 construct: expressed in transfected cells; host or cells: CV-1 (monkey)
T3 sequence (O54915 143-430 limits assumed): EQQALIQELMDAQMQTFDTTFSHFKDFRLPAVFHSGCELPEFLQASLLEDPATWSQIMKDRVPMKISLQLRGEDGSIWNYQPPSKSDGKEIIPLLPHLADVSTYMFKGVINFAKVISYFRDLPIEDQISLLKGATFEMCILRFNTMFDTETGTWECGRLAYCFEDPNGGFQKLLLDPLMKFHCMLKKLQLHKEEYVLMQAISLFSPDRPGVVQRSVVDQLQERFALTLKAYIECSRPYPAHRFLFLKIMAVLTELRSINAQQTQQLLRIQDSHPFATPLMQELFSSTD
Protocol: as §1, §2, §3, §4

hVDR = target: T4, hVDR (Homo sapiens, UniProt P11473)
T4 construct: expressed in transfected cells; host or cells: CV-1 (monkey)
T4 sequence (P11473 127-423 limits assumed): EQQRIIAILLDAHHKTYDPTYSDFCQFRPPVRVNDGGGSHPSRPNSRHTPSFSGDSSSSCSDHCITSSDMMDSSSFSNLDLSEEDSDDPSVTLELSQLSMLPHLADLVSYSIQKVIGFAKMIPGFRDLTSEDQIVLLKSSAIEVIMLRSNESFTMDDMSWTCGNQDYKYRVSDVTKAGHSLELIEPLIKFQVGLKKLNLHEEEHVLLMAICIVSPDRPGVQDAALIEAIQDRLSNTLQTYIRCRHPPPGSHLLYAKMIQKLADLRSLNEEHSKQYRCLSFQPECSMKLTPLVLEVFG
Protocol: as §1, §2, §3, §4

hTRβ = target: T5, hTRβ (Homo sapiens, UniProt P10828)
T5 construct: expressed in transfected cells; host or cells: CV-1 (monkey)
T5 sequence (P10828 217-461 limits assumed): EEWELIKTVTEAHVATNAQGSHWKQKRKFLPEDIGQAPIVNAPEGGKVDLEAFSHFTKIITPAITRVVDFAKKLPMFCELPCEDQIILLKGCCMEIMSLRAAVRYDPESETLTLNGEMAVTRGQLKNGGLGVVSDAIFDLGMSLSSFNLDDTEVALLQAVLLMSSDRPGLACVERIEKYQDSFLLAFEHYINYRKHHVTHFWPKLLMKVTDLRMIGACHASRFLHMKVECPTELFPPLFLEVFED
Protocol: as §1, §2, §3, §4

mERR3 = target: T6, mERR3 (Mus musculus, UniProt P62509)
T6 construct: expressed in transfected cells; host or cells: CV-1 (monkey)
T6 sequence (P62509 233-457 limits assumed): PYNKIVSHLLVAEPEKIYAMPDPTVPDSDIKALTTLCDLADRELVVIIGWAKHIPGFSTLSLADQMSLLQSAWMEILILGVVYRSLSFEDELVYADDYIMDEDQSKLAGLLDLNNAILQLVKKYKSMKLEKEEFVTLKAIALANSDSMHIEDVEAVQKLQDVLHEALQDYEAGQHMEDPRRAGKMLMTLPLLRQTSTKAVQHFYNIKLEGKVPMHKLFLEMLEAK
Protocol: as §1, §2, §3, §4

hRARβ = target: T7, hRARβ (Homo sapiens, UniProt P10826)
T7 construct: expressed in transfected cells; host or cells: CV-1 (monkey)
T7 sequence (P10826 183-417 limits assumed): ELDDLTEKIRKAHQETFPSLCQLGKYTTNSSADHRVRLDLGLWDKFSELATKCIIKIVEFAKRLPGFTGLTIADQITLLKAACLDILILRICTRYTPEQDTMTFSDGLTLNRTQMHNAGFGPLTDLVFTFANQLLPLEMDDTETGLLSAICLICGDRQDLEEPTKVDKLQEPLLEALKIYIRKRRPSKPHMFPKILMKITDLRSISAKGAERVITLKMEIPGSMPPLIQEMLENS
Protocol: as §1, §2, §3, §4

COC(=O)/C=C/c1cccc(N(Cc2ccc(-c3ccc(N(C)C)cc3)cc2)C(=O)C2CCCCC2)c1 [fexaramine]
No activity: activity on chimeric hRXRα construct (hRXRα) | activity on chimeric hLXRα construct (hLXRα) | activity on chimeric mPXR construct (mPXR) | activity on chimeric hVDR construct (hVDR) | activity on chimeric hTRβ construct (hTRβ) | activity on chimeric mERR3 construct (mERR3) | activity on chimeric hRARβ construct (hRARβ)

COC(=O)/C=C/c1cccc(N(Cc2ccc(/C=C/c3ccccc3)cc2)C(=O)C2CCCCC2)c1 [fexarene]
No activity: activity on chimeric hRXRα construct (hRXRα) | activity on chimeric hLXRα construct (hLXRα) | activity on chimeric mPXR construct (mPXR) | activity on chimeric hVDR construct (hVDR) | activity on chimeric hTRβ construct (hTRβ) | activity on chimeric mERR3 construct (mERR3) | activity on chimeric hRARβ construct (hRARβ)

COC(=O)/C=C/c1cccc(N(Cc2ccc(-c3ccc4c(c3)OCO4)cc2)C(=O)C2CCCCC2)c1 [fexarine]
No activity: activity on chimeric hRXRα construct (hRXRα) | activity on chimeric hLXRα construct (hLXRα) | activity on chimeric mPXR construct (mPXR) | activity on chimeric hVDR construct (hVDR) | activity on chimeric hTRβ construct (hTRβ) | activity on chimeric mERR3 construct (mERR3) | activity on chimeric hRARβ construct (hRARβ)

Reference: patent US7647217B2, “Structure of the farnesoid X receptor ligand binding domain and methods of use therefor” (The Salk Institute for Biological Studies, priority 2002, dated 2010)
